The target of one assay is T1, Human mTOR (FLAG-TOR) (Homo sapiens, UniProt P42345).
T1 construct: FLAG
Description: Human mTOR kinase assay with purified enzyme, DELFIA format. The assay is classed as biochemical. In outline:
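Purified FLAG-mTOR in HEPES pH 7.4 buffer with 10 mM MnCl2 was preincubated with inhibitor and reacted 2 h at room temperature with His6-S6K substrate, then stopped with EDTA/EGTA. Phospho-T389 S6K detected by DELFIA with Eu-labelled antibody (40 ng/mL) after plate capture; inhibition computed from signal.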

Another assay has as its system breast line MDA468. Description: In vitro cell culture growth assay (MTS), MDA468. The note with it: Homo sapiens, 72 h, MDA468 cells, three days after drug treatment. The assay is classed as cell-based. In outline: (§1)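 Inhibitors were added one day after plating, and viable cells were measured 3 days later by MTS conversion (absorbance 490 nm).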
In another assay the test system is prostate line LNCap. Description: In vitro cell culture growth assay (MTS), LNCap. It is filed as cell-based. Conditions: Homo sapiens, LNCaP, 72 h, LNCap cells, three days after drug treatment. In outline: as §1
For assay [1], the target named is T2, PI3K (Homo sapiens, UniProt P48736).
T2 construct: PI3 Kinase γ IC50; other: PI3 Kinase γ; other: PI3 Kinase γ isoform, fluorescence polarization
Description: Fluorescence polarization assay for PI3K. Conditions: read-out: PI3 Kinase γ IC50. The assay is classed as biochemical. In outline: (§2)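 PI3K was preincubated with compound (final DMSO 1%), and the reaction was started with PIP2/ATP substrate and run 30–60 min. It was stopped with a detector mix giving 10 nM red probe and 70 nM GST-GRP.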
A general note: Polarisation of emitted light reports the rotation of a fluorescent probe.

Assay [2] has as its target T3, PI3K (Homo sapiens, UniProt P42336).
T3 construct: PI3 Kinase α IC50; other: PI3 Kinase α; other: PI3 Kinase α isoform, fluorescence polarization
Put plainly: Fluorescence polarization assay for PI3K. The assay is classed as biochemical. The note with it: read-out: PI3 Kinase α IC50. In short, it runs like this: as §2

[3] abbreviates: purified human mTOR enzyme, DELFIA format.
Where [4] appears, read: PI3 Kinase γ isoform, fluorescence polarization.
Where [5] appears, read: PI3 Kinase α isoform, fluorescence polarization.

Read-outs that look alike come from different tables or passages of the source.

T2 sequence (P48736 whole entry, canonical isoform): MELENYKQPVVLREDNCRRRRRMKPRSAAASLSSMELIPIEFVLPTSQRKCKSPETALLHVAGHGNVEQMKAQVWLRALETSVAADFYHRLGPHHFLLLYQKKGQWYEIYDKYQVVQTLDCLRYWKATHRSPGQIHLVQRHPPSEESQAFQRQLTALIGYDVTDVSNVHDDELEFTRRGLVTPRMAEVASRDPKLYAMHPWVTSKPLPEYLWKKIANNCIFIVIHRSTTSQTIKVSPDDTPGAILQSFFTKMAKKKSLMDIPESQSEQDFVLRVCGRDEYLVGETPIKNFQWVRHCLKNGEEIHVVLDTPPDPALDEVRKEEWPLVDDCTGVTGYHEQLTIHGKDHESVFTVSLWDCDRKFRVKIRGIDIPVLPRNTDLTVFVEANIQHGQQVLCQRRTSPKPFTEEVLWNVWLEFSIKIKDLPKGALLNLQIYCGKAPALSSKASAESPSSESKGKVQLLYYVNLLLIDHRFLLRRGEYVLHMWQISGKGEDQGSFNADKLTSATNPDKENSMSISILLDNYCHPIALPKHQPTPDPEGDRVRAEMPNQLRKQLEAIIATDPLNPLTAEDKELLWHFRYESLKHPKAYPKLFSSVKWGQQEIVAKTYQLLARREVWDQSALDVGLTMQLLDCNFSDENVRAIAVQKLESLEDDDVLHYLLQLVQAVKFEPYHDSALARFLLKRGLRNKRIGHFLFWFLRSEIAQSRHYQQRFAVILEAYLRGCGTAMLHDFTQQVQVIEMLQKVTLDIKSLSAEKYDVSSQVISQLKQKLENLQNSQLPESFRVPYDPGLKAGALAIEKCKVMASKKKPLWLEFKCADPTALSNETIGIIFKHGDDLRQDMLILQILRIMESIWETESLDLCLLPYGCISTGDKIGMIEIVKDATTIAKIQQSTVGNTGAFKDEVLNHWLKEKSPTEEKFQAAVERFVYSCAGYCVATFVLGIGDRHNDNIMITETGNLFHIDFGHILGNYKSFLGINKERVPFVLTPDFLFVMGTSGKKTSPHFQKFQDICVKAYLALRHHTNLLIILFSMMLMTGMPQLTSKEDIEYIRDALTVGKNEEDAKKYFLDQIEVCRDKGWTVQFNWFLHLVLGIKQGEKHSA
T3 sequence (P42336 whole entry, canonical isoform): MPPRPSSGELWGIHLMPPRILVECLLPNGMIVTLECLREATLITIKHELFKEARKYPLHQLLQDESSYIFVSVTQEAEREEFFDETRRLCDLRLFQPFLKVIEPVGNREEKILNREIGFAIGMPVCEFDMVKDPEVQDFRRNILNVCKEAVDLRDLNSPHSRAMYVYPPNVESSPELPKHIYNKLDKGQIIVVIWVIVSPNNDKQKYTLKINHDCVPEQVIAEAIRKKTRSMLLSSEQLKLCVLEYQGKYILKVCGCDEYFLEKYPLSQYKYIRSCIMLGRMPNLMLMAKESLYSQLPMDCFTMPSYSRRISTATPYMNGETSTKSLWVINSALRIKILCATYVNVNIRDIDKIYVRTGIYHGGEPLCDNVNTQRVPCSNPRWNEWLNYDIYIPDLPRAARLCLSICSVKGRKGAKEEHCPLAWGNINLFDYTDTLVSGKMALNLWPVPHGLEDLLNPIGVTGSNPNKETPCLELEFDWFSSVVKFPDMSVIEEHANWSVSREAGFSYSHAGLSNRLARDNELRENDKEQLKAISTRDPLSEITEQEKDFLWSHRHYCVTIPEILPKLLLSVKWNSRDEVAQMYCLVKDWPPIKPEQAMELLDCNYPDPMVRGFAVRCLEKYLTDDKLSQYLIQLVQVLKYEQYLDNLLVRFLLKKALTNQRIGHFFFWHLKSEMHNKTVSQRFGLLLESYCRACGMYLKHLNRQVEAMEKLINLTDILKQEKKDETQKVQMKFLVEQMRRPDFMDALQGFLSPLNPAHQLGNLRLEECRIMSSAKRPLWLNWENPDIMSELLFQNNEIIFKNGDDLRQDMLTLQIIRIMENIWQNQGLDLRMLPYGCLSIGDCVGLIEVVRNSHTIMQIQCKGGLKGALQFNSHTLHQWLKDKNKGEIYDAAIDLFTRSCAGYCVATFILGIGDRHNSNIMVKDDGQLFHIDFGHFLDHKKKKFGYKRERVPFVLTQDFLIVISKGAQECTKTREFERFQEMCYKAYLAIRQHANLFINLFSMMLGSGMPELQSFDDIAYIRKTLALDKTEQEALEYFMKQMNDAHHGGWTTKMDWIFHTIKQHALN

Take `CCn1ncc2c(N3CC4CCC(C3)O4)nc(-c3ccc(NC(=O)Nc4ccc(N5CCN(C)CC5)cc4)cc3)nc21` [Example 180, 1-{4-[1-ethyl-4-(8-oxa-3-azabicyclo[3.2.1]oct-3-yl)-1H-pyrazolo[3,4-d]pyrimidin-6-yl]phenyl}-3-[4-(4-methylpiperazin-1-yl)phenyl]urea]: the IC50 against Human mTOR (FLAG-TOR) was 0.275 nM; in the assay with breast line MDA468 it was < 1 nM; in the assay on prostate line LNCap, < 1 nM; on PI3K [1] (PI3 Kinase γ), 1340 nM; on PI3K [2] (PI3 Kinase α) it was 56 nM.

`CC(C)n1ncc2c(N3CC4CCC(C3)O4)nc(-c3ccc(NC(=O)NC4CC4)cc3)nc21` [Example 142, 1-cyclopropyl-3-{4-[1-isopropyl-4-(8-oxa-3-azabicyclo[3.2.1]oct-3-yl)-1H-pyrazolo[3,4-d]pyrimidin-6-yl]phenyl}urea]: the IC50 on Human mTOR (FLAG-TOR) was 0.2 nM; in the assay with breast line MDA468 it was 48 nM; in the assay on prostate line LNCap, 1 nM; on PI3K [1] (PI3 Kinase γ), 5380 nM; at PI3K [2] (PI3 Kinase α) it was 953 nM.

Take `COC(=O)N1CCC(n2ncc3c(N4CC5CCC(C4)O5)nc(-c4ccc(NC(=O)Nc5ccccc5)cc4)nc32)CC1` [Example 11, methyl 4-[4-(8-oxa-3-azabicyclo[3.2.1]oct-3-yl)-6-{4-[(phenylcarbamoyl)amino]phenyl}-1H-pyrazolo[3,4-d]pyrimidin-1-yl]piperidine-1-carboxylate]: the IC50 against Human mTOR (FLAG-TOR) is 0.37 nM; in the assay with breast line MDA468, 120 nM; with prostate line LNCap it was 10 nM; at PI3K [1] (PI3 Kinase γ), 6820 nM; on PI3K [2] (PI3 Kinase α), 272 nM.

`CNC(=O)Nc1ccc(-c2nc(N3CC4CCC(C3)O4)c3cnn(C4CCN(C(=O)OC)CC4)c3n2)cc1` [Example 7, methyl 4-[6-{4-[(methylcarbamoyl)amino]phenyl}-4-(8-oxa-3-azabicyclo[3.2.1]oct-3-yl)-1H-pyrazolo[3,4-d]pyrimidin-1-yl]piperidine-1-carboxylate]: the IC50 on Human mTOR (FLAG-TOR) is 0.21 nM; with breast line MDA468, 80 nM; in the assay on prostate line LNCap it was 26 nM; at PI3K [1] (PI3 Kinase γ), > 10000 nM; at PI3K [2] (PI3 Kinase α) it was 1800 nM.

As for `O=C(Nc1ccc(-c2nc(N3C4CCC3COC4)c3cnn(CC(F)(F)F)c3n2)cc1)Nc1ccc(N2CCOCC2)cc1` [Example 273, 1-(4-morpholin-4-ylphenyl)-3-{4-[4-(3-oxa-8-azabicyclo[3.2.1]oct-8-yl)-1-(2,2,2-trifluoroethyl)-1H-pyrazolo[3,4-d]pyrimidin-6-yl]phenyl}urea], the IC50 on Human mTOR (FLAG-TOR) was 0.24 nM; in the assay on breast line MDA468, 10 nM; in the assay with prostate line LNCap, 1 nM; on PI3K [1] (PI3 Kinase γ), > 10000 nM; on PI3K [2] (PI3 Kinase α), 618 nM.

Turning to `CNC(=O)Nc1ccc(-c2nc(N3CC4CCC(C3)O4)c3cnn(C4CCC(N5CCCC5)CC4)c3n2)cc1` (stereo not shown) [Example 331, 1-methyl-3-{4-[4-(8-oxa-3-azabicyclo[3.2.1]oct-3-yl)-1-(4-pyrrolidin-1-ylcyclohexyl)-1H-pyrazolo[3,4-d]pyrimidin-6-yl]phenyl}urea], the IC50 against Human mTOR (FLAG-TOR) (setting [3]) worked out at 8.05 nM; in the assay with breast line MDA468 it was 1200 nM; with prostate line LNCap it was 380 nM; on PI3K [1] (setting [4]), 5320 nM; at PI3K [2] (setting [5]), 606 nM.

For `CN(C)CCn1ncc2c(N3CC4CCC(C3)O4)nc(-c3ccc(NC(=O)Nc4ccncc4)cc3)nc21` [Example 162, 1-(4-{1-[2-(dimethylamino)ethyl]-4-(8-oxa-3-azabicyclo[3.2.1]oct-3-yl)-1H-pyrazolo[3,4-d]pyrimidin-6-yl}phenyl)-3-pyridin-4-ylurea], the IC50 at Human mTOR (FLAG-TOR) is 1.2 nM; in the assay on breast line MDA468, 200 nM; with prostate line LNCap, 50 nM; on PI3K [1] (PI3 Kinase γ) it was 482 nM; at PI3K [2] (PI3 Kinase α), 173 nM.

Consider `O=C(Nc1ccncc1)Nc1ccc(-c2nc(N3CC4CNCC(C3)O4)c3cnn(CC(F)(F)F)c3n2)cc1` [Example 337, 1-{4-[4-(9-oxa-3,7-diazabicyclo[3.3.1]non-3-yl)-1-(2,2,2-trifluoroethyl)-1H-pyrazolo[3,4-d]pyrimidin-6-yl]phenyl}-3-pyridin-4-ylurea], for which the IC50 worked out at 31.5 nM against Human mTOR (FLAG-TOR) (setting [3]); 1900 nM in the assay with breast line MDA468; 2200 nM in the assay on prostate line LNCap; 7930 nM at PI3K [1] (setting [4]); 1790 nM at PI3K [2] (setting [5]).

With `N#CCCn1ncc2c(N3CC4CCC(C3)O4)nc(-c3ccc(NC(=O)Nc4ccc(N5CCOCC5)cc4)cc3)nc21` [Example 221, 1-{4-[1-(2-cyanoethyl)-4-(8-oxa-3-azabicyclo[3.2.1]oct-3-yl)-1H-pyrazolo[3,4-d]pyrimidin-6-yl]phenyl}-3-(4-morpholin-4-ylphenyl)urea], the IC50 is 0.235 nM against Human mTOR (FLAG-TOR); 3 nM with breast line MDA468; < 1 nM in the assay with prostate line LNCap; 4790 nM on PI3K [1] (PI3 Kinase γ); 444 nM on PI3K [2] (PI3 Kinase α).

For the compound `CNC(=O)Nc1ccc(-c2nc(N3CC4CCC(C3)O4)c3cnn(C4CCC(=O)CC4)c3n2)cc1` [Example 106, 1-(4-(4-(8-oxa-3-azabicyclo[3.2.1]octan-3-yl)-1-(4-oxocyclohexyl)-1H-pyrazolo[3,4-d]pyrimidin-6-yl)phenyl)-3-methylurea], the IC50 on Human mTOR (FLAG-TOR) is 0.22 nM; with breast line MDA468 it was 110 nM; in the assay with prostate line LNCap it was 32 nM; on PI3K [1] (PI3 Kinase γ), > 10000 nM; at PI3K [2] (PI3 Kinase α), 1300 nM.

In the case of `CS(=O)(=O)N1CCN(Cc2cc3nc(-c4ccc(NC(=O)Nc5ccccc5)cc4)nc(N4CC5CCC(C4)O5)c3s2)CC1` [Example 432, 1-{4-[6-{[4-(methylsulfonyl)piperazin-1-yl]methyl}-4-(8-oxa-3-azabicyclo[3.2.1]oct-3-yl)thieno[3,2-d]pyrimidin-2-yl]phenyl}-3-phenylurea], the concentration for half-maximal inhibition (IC50) worked out at 1.3 nM against Human mTOR (FLAG-TOR) (setting [3]); 37 nM with breast line MDA468; 4 nM in the assay with prostate line LNCap; 522 nM on PI3K [1] (setting [4]); 6 nM at PI3K [2] (setting [5]).

As for `O=C(Nc1ccc(-c2nc(N3CC4CCC(C3)O4)c3cnn(C4CCC5(CC4)OCCO5)c3n2)cc1)OCCCO` [Example 122, 3-hydroxypropyl {4-[1-(1,4-dioxaspiro[4.5]dec-8-yl)-4-(8-oxa-3-azabicyclo[3.2.1]oct-3-yl)-1H-pyrazolo[3,4-d]pyrimidin-6-yl]phenyl}carbamate], the IC50 against Human mTOR (FLAG-TOR) was 4 nM; in the assay with breast line MDA468, 1800 nM; in the assay on prostate line LNCap, 190 nM; on PI3K [1] (PI3 Kinase γ), > 10000 nM; on PI3K [2] (PI3 Kinase α), > 10000 nM.

On to `Nc1ccc(-c2nc(N3CC4CCC(C3)O4)c3sccc3n2)cn1` [Example 420, 5-[4-(8-oxa-3-azabicyclo[3.2.1]oct-3-yl)thieno[3,2-d]pyrimidin-2-yl]pyridin-2-amine], for which the IC50 is 32 nM against Human mTOR (FLAG-TOR) (setting [3]); 4800 nM in the assay on breast line MDA468; 1250 nM in the assay on prostate line LNCap; > 10000 nM at PI3K [1] (setting [4]); 1770 nM on PI3K [2] (setting [5]).

Consider `COC(=O)N1CCC(n2ncc3c(N4C5CCC4COC5)nc(-c4ccc(NC(=O)Nc5ccc(N6CCNCC6)cc5)cc4)nc32)CC1` [Example 364, methyl 4-[4-(3-oxa-8-azabicyclo[3.2.1]oct-8-yl)-6-(4-{[(4-piperazin-1-ylphenyl)carbamoyl]amino}phenyl)-1H-pyrazolo[3,4-d]pyrimidin-1-yl]piperidine-1-carboxylate], for which the IC50 was 0.44 nM on Human mTOR (FLAG-TOR) (setting [3]); 4 nM with breast line MDA468; 1 nM in the assay with prostate line LNCap; 947 nM at PI3K [1] (setting [4]); 1230 nM at PI3K [2] (setting [5]).

Consider `COCC(COC)n1ncc2c(N3CC4CCC(C3)O4)nc(-c3ccc(NC(=O)NC4CC4)cc3)nc21` [Example 321, 1-cyclopropyl-3-(4-{1-[2-methoxy-1-(methoxymethyl)ethyl]-4-(8-oxa-3-azabicyclo[3.2.1]oct-3-yl)-1H-pyrazolo[3,4-d]pyrimidin-6-yl}phenyl)urea], for which the 50% inhibitory concentration (IC50) on Human mTOR (FLAG-TOR) (setting [3]) was 10.4 nM; in the assay on breast line MDA468, 1050 nM; with prostate line LNCap, 170 nM; at PI3K [1] (setting [4]) it was > 10000 nM; on PI3K [2] (setting [5]), 3810 nM.

Consider `O=C(Nc1ccc(-c2nc(N3CC4CCC(C3)O4)c3cnn(C4CCC5(CCCO5)CC4)c3n2)cc1)OCCO` (single isomer, unassigned) [Example 315, 2-hydroxyethyl (4-{4-(8-oxa-3-azabicyclo[3.2.1]oct-3-yl)-1-[(5r,8r)-1-oxaspiro[4.5]dec-8-yl]-1H-pyrazolo[3,4-d]pyrimidin-6-yl}phenyl)carbamate], for which the IC50 on Human mTOR (FLAG-TOR) (setting [3]) was 0.8 nM; in the assay on breast line MDA468 it was 220 nM; in the assay on prostate line LNCap, 10 nM; at PI3K [1] (setting [4]), 2060 nM; at PI3K [2] (setting [5]), 5600 nM.

On to `O=C(Nc1ccc(-c2nc(N3CC4CCC(C3)O4)c3cn[nH]c3n2)cc1)Nc1cccnc1` [Example 91, 1-{4-[4-(8-oxa-3-azabicyclo[3.2.1]oct-3-yl)-1H-pyrazolo[3,4-d]pyrimidin-6-yl]phenyl}-3-pyridin-3-ylurea], for which the IC50 came out at 0.49 nM against Human mTOR (FLAG-TOR); 120 nM with breast line MDA468; 500 nM in the assay on prostate line LNCap; 2640 nM at PI3K [1] (PI3 Kinase γ); 306 nM on PI3K [2] (PI3 Kinase α).

Broadly, the IC50 is the point on the concentration scale where inhibition reaches its midpoint.

These data come from US8129371B2, “Thienopyrimidine and pyrazolopyrimidine compounds and their use as mTOR kinase and PI3 kinase inhibitors” (Wyeth LLC, priority 2007, dated 2012).
